# According to patent US20140275063A1, “NEW ENZYME INHIBITOR COMPOUNDS” (PROXIMAGEN LIMITED, priority 2011, published 2014):
# pIC50: −log10 of the molar value. Counter-ions that a name gives are not always drawn.
# Target: T1, human SSAO (Homo sapiens, UniProt Q16853)
# T1 construct: made in house
# T1 sequence (Q16853 29-763 limits assumed): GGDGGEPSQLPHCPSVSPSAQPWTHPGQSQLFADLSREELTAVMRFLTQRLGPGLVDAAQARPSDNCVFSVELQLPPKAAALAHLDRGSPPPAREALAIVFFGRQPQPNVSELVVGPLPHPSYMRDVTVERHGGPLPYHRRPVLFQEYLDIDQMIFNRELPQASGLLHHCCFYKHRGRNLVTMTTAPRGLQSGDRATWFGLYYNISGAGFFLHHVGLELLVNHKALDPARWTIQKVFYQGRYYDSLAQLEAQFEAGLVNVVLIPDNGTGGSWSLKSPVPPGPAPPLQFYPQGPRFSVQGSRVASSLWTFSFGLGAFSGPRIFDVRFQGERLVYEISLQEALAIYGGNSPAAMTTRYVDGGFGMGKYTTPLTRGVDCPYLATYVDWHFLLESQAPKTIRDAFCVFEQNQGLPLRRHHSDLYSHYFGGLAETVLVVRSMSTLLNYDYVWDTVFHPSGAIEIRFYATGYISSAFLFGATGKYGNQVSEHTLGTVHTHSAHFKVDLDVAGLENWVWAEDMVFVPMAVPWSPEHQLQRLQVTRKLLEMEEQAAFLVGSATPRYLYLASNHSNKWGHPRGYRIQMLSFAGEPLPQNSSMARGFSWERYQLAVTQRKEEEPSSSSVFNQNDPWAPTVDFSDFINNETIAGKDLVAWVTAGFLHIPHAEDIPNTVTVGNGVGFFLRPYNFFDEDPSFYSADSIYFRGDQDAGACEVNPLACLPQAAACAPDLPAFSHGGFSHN
# Assay: SSAO inhibitory activity (HRP-coupled hydrogen peroxide detection or 14C-benzaldehyde detection, benzylamine substrate)
# Type: biochemical
# Conditions: purified recombinantly expressed human SSAO, benzylamine as substrate, RT
# Method: All primary assays were performed at RT. with purified recombinantly expressed human SSAO. Enzyme was prepared essentially as described in Öhman et al. (Protein Expression and Purification 46 (2006) 321-331). In addition, secondary- and selectivity assays were performed using SSAO prepared from various tissues or purified rat recombinant SSAO. The enzyme activity was assayed with benzylamine as substrate by measuring either benzaldehyde production, using ^14C-labeled substrate, or by utilizing the production of hydrogen peroxide in a horseradish peroxidase (HRP) coupled reaction. Briefly, test compounds were dissolved in dimethyl sulfoxide (DMSO) to a concentration of 10 mM. Dose-response measurements were assayed by either creating 1:10 serial dilutions in DMSO to produce a 7 point curve or by making 1:3 serial dilutions in DMSO to produce 11 point curves. The top concentrations were adjusted depending on the potency of the compounds and subsequent dilution in reaction buffer yielded a final DMSO concentration ≦2%.
# In a horseradish peroxidase (HRP) coupled reaction, hydrogen peroxide oxidation of 10-acetyl-3,7-dihydroxyphenoxazine produced resorufin, which is a highly fluorescent compound (Zhout and Panchuk-Voloshina. Analytical Biochemistry 253 (1997) 169-174; Amplex® Red Hydrogen Peroxideperoxidase Assay kit, Invitrogen A22188). Enzyme and compounds in 50 mM sodium phosphate, pH 7.4 were set to pre-incubate in flat-bottomed microtiter plates for approximately 15 minutes before initiating the reaction by addition of a mixture of HRP, benzylamine and Amplex reagent. Benzylamine concentration was fixed at a concentration corresponding to the Michaelis constant, determined using standard procedures. Fluorescence intensity was then measured at several time points during 1-2 hours, exciting at 544 nm and reading the emission at 590 nm. For the human SSAO assay final concentrations of the reagents in the assay wells were: SSAO enzyme 1 μg/ml, benzylamine 100 μM, Amplex reagent 20 μM, HRP 0.1 U/mL and varying concentrations of test compound. The inhibition was measured as % decrease of the signal compared to a control without inhibitor (only diluted DMSO). The background signal from a sample containing no SSAO enzyme was subtracted from all data points. Data was fitted to a four parameter logistic model and IC50 values were calculated using the Graph Pad Prism 4 or XLfit 4 programs.
# SSAO activity was assayed using 14C-labeled benzylamine and analysed by measuring radioactive benzaldehyde. In a white 96-well optiplate (Packard), 20 μL of diluted test compound was pre-incubated at RT. with 20 μL SSAO enzyme for approximately 15 minutes with continuous agitation. All dilutions were made with PBS. The reaction was initiated by adding 20 μL of the benzylamine substrate solution containing [7-14C] Benzylamine hydrochloride (CFA589, GE Healthcare). The plate was incubated for 1 hour as above after which the reaction was stopped by acidification (10 μL 1 M HCl). Then 90 μL Micro Scint-E solution (Perkin-Elmer) was added to each well and the plate was continuously mixed for 15 minutes. Phase separation occurred instantly and activity was read in a Topcount scintillation counter (Perkin-Elmer). In the final reaction well, the human recombinant SSAO concentration was 10 μg/ml. In order to optimize sensitivity, the substrate concentration was decreased as compared to the HRP coupled assay in order to get a higher fraction of radioactive product. In the human SSAO assay, benzylamine concentration was 40 μM (0.2 μCi/mL). Data was analysed as above.
row,Structure (SMILES),pIC50
1,"NCCCNC(=O)N1CCN(CC2CN(c3nn(-c4ccc(Cl)cc4)c4cnccc34)CCO2)CC1 (stereo not drawn) [Compound 38, N-(3-Aminopropyl)-4-({4-[1-(4-chlorophenyl)-1H-pyrazolo[3,4-c]pyridin-3-yl]morpholin-2-yl}methyl)piperazine-1-carboxamide tri hydrochloride]",6.30 to 7.00
2,"O=C(N1CCC(c2cn(-c3ccc(Cl)cc3)c3cnccc23)CC1)N1CCN(C2CC2)CC1 [Compound 16, 1-({4-[1-(4-Chlorophenyl)-1H-pyrrolo[2,3-c]pyridin-3-yl]piperidin-1-yl}carbonyl)-4-cyclopropyl-piperazine]",> 7.00
3,"Clc1ccc(-n2nc(N3CCC(CNCC4CCNCC4)CC3)c3ccncc32)cc1 [Compound 50, ({1-[1-(4-Chlorophenyl)-1H-pyrazolo[3,4-c]pyridin-3-yl]piperidin-4-yl}methyl)(piperidin-4-ylmethyl)amine]",6.30 to 7.00
4,"O=C(NC1CCNCC1)N1CCC(c2cn(-c3ccc(Cl)cc3)c3cnccc23)CC1 [Compound 7, 4-[1-(4-Chlorophenyl)-1H-pyrrolo[2,3-c]pyridin-3-yl]-N-(piperidin-4-yl) piperidine-1-carboxamide]",> 7.00
5,"CN1CCN(CCNC(=O)N2CCC(c3cn(-c4ccc(Cl)cc4)c4cnccc34)CC2)CC1 [Compound 25, 4-[1-(4-Chlorophenyl)-1H-pyrrolo[2,3-c]pyridin-3-yl]-N-[2-(4-methylpiperazin-1-yl)ethyl] piperidine-1-carboxamide]",> 7.00
6,"CNC(=O)NCC1CN(c2nn(-c3ccc(Cl)cc3)c3cnccc23)CCO1 (stereo not drawn) [Compound 60, 1-({4-[1-(4-Chlorophenyl)-1H-pyrazolo[3,4-c]pyridin-3-yl]morpholin-2-yl}methyl)-3-methylurea]",> 7.00
7,"O=C(CC1CCNCC1)N1CCC(c2cn(-c3ccc(Cl)cc3)c3cnccc23)CC1 [Compound 4, 1-{4-[1-(4-Chlorophenyl)-1H-pyrrolo[2,3-c]pyridin-3-yl]piperidin-1-yl}-2-(piperidin-4-yl)ethan-1-one]",> 7.00
8,"CN1CCN(CCC2COCCN2c2nn(-c3ccc(Cl)cc3)c3cnccc23)CC1 (stereo not drawn) [Compound 42, 4-[1-(4-Chlorophenyl)-1H-pyrazolo[3,4-c]pyridin-3-yl]-3-[2-(4-methylpiperazin-1-yl)ethyl]morpholine]",> 7.00
9,"CN1CCN(C(=O)N2CCC(c3cn(-c4ccc(Cl)cc4)c4cnccc34)CC2)CC1 [Compound 5, 1-({4-[1-(4-Chlorophenyl)-1H-pyrrolo[2,3-c]pyridin-3-yl]piperidin-1-yl}carbonyl)-4-methylpiperazine]",> 7.00
10,"O=C(NCc1nn[nH]n1)N1CCC(c2cn(-c3ccc(Cl)cc3)c3cnccc23)CC1 [Compound 61, 4-[1-(4-Chlorophenyl)-1H-pyrrolo[2,3-c]pyridin-3-yl]-N-(2H-1,2,3,4-tetrazol-5-ylmethyl)piperidine-1-carboxamide; trifluoroacetic acid]",> 7.00
11,"CN1CCC(CNC(=O)C2CCCCN2c2nn(-c3ccc(Cl)cc3)c3cnccc23)CC1 (stereo not drawn) [Compound 43, 1-[1-(4-Chlorophenyl)-1H-pyrazolo[3,4-c]pyridin-3-yl]-N-[(1-methylpiperidin-4-yl)methyl]piperidine-2-carboxamide]",6.30 to 7.00
12,"CN1CCC(CNC(=O)CC2COCCN2c2nn(-c3ccc(Cl)cc3)c3cnccc23)CC1 (stereo not drawn) [Compound 58, 2-{4-[1-(4-Chlorophenyl)-1H-pyrazolo[3,4-c]pyridin-3-yl]morpholin-3-yl}-N-[(1-methylpiperidin-4-yl)methyl] acetamide]",6.30 to 7.00
13,"COC(=O)CC1COCCN1c1nn(-c2ccc(Cl)cc2)c2cnccc12 (stereo not drawn) [Compound 40, Methyl 2-{4-[1-(4-chlorophenyl)-1H-pyrazolo[3,4-c]pyridin-3-yl]morpholin-3-yl}acetate]",> 7.00
14,"O=C(NCC1CNCCO1)N1CCC(c2cn(-c3ccc(Cl)cc3)c3cnccc23)CC1 (stereo not drawn) [Compound 20, 4-[1-(4-Chlorophenyl)-1H-pyrrolo[2,3-c]pyridin-3-yl]-N-(morpholin-2-ylmethyl) pipendine-1-carboxamide]",> 7.00
15,"CN1CCN(CC2CN(c3nn(-c4ccc(Cl)cc4)c4cnccc34)CCO2)CC1 (stereo not drawn) [Compound 35, 4-[1-(4-Chlorophenyl)-1H-pyrazolo[3,4-c]pyridin-3-yl]-2-[(4-methylpiperazin-1-yl)methyl]morpholine]",6.30 to 7.00
16,"O=C(NC1(c2nn[nH]n2)CCC1)N1CCC(c2cn(-c3ccc(Cl)cc3)c3cnccc23)CC1 [Compound 63, 4-[1-(4-Chlorophenyl)-1H-pyrrolo[2,3-c]pyridin-3-yl]-N-[1-(2H-1,2,3,4-tetrazol-5-yl)cyclobutyl]piperidine-1-carboxamide; trifluoroacetic acid]",> 7.00
17,"Clc1ccc(-n2cc(C3CCN(C4CCNCC4)CC3)c3ccncc32)cc1 [Compound 2, 4-[1-(4-Chlorophenyl)-1H-pyrrolo[2,3-c]pyridin-3-yl]-1-(piperidin-4-yl)piperidine]",6.30 to 7.00
18,"Cc1ccc(-n2nc(N3CCOC(CNC(=O)NC4CC4)C3)c3ccncc32)cc1 (stereo not drawn) [Compound 31, 3-Cyclopropyl-1-({4-[1-(4-methylphenyl)-1H-pyrazolo[3,4-c]pyridin-3-yl]morpholin-2-yl}methyl)urea]",> 7.00
19,"CCNC(=O)N1CCN(CC2CN(c3nn(-c4ccc(Cl)cc4)c4cnccc34)CCO2)CC1 (stereo not drawn) [Compound 39, 4-({4-[1-(4-Chlorophenyl)-1H-pyrazolo[3,4-c]pyridin-3-yl]morpholin-2-yl}methyl)-N-ethylpiperazine-1-carboxamide]",6.30 to 7.00
20,"Clc1ccc(-n2nc(N3CCC(CN4CCOCC4)CC3)c3ccncc32)cc1 [Compound 48, 4-({1-[1-(4-Chlorophenyl)-1H-pyrazolo[3,4-c]pyridin-3-yl]piperidin-4-yl}methyl) morpholine dihydrochloride]",> 7.00
21,"Cc1ccc(-n2nc(N3CCOC(CNC(=O)OC(C)C)C3)c3ccncc32)cc1 (stereo not drawn) [Compound 30, Propan-2-yl N-({4-[1-(4-methylphenyl)-1H-pyrazolo[3,4-c]pyridin-3-yl]morpholin-2-yl}methyl)carbamate]",> 7.00
22,"CN1CCC(CNC(=O)N2CCN(c3nn(-c4ccc(Cl)cc4)c4cnccc34)CC2)CC1 [Compound 51, 4-[1-(4-Chlorophenyl)-1H-pyrazolo[3,4-c]pyridin-3-yl]-N-[(1-methylpiperidin-4-yl)methyl]piperazine-1-carboxamide]",> 7.00
23,"CN1CCC(NC(=O)CC2COCCN2c2nn(-c3ccc(Cl)cc3)c3cnccc23)CC1 (stereo not drawn) [Compound 57, 2-{4-[1-(4-Chlorophenyl)-1H-pyrazolo[3,4-c]pyridin-3-yl]morpholin-3-yl)-N-(1-methylpiperidin-4-yl)acetamide]",6.30 to 7.00
24,"Clc1ccc(-n2nc(NCCN3CCNCC3)c3ccncc32)cc1 [Compound 45, 1-(4-Chlorophenyl)-N-[2-(piperazin-1-yl)ethyl]-1H-pyrazolo[3,4-c]pyridin-3-amine]",6.30 to 7.00
